Read-outs that look alike come from different tables or passages of the source.
How the values were obtained:
[1] = test system: HCV genotype 1a (H77 strain) replicon in HUH-7 cells; assay: HCV replicon luciferase reporter assay, genotype 1a; type: cell-based; details: Hepatitis C virus, 72 h, genotype 1a replicon, 3 days incubation
Excerpt: (§1) An HCV replicon whole cell system was established as described by Lohmann V, Korner F, Koch J, Herian U, Theilmann L, Bartenschlager R., Science 285(5424):110-3 (1999) and modified to introduce a luciferase reporter, as first described by Krieger et al (Krieger N, Lohmann V, and Bartenschlager R, J. Virol. 75(10):4614-4624 (2001)). CDNA encoding a humanized form of the Renilla luciferase gene and a linker sequence fused directly to the 3′-end of the luciferase gene were introduced into the replicon construct using an Ascl restriction site located in core, directly upstream of the neomycin marker gene. The adaptive mutation at position 1179 (serine to isoleucine) was also introduced (Blight K J, Kolykhalov, A A, Rice, C M, Science 290(5498):1972-1974). A stable cell line constitutively expressing this HCV replicon construct was generated by first linearizing plasmid DNAs with ScaI. RNA transcripts were synthesized in vitro using the T7 MegaScript transcription kit (Ambion, Austin, Tex.) according to manufacturer's directions. In vitro transcripts of the cDNA were transfected into the human hepatoma cell line, HUH-7. […] Resulting cell lines were characterized for positive and negative strand RNA production and protein production over time.
A stable HCV replicon luciferase reporter cell line representing the genotype 1a H77 strain (Yanagi M, Purcell R H, Emerson S U, et al. Transcripts from a single full-length cDNA clone of hepatitis C virus are infectious when directly transfected into the liver of a chimpanzee. Proc Natl Acad Sci USA 1997; 94(16):8738-8743) was generated as described previously for the genotype 1b(Con1) replicon luciferase cell line. The replicon construct was modified by introducing mutations were introduced into the genes encoding the NS3 helicase domain (proline replaced by leucine at position 1496) and NS5A (serine to isoleucine at position 2204) to improve replication in cell culture.
(§2) HCV replicon luciferase assays were developed to monitor the inhibitory effects of compounds described in the disclosure on HCV genotypes 1a and 1b viral replication. HUH-7 cells, constitutively expressing the HCV replicon, were grown in Dulbecco's Modified Eagle Media (DMEM) (Gibco-BRL) containing 10% Fetal calf serum (FCS) (Sigma) and 1 mg/mL G418 (Gibco-BRL). Compounds were serially diluted 3 folds in DMSO for a twenty-point titration and subsequently transferred to sterile 384-well tissue-culture treated plates (Corning cat #3571). The plates were then seeded with 50 μL of cells at a density of 3.0×10^3 cells/well in DMEM containing 4% FCS (final DMSO concentration at 0.5%). After 3 days incubation at 37° C., cells were analyzed for Renilla Luciferase activity using the EnduRen as substrate (Promega cat #E6485). The EnduRen substrate was diluted in DMEM and then added to the plates to a final concentration of 7.5 μM. The plates were incubated for 2 hrs at 37° C. and then read immediately for 30 seconds with Viewlux Imager (PerkinElmer) using a luminescence program. To assess cytotoxicity of compounds, CC50 values were generated by multiplexing the EnduRen-containing plates with Cell Titer-Blue (Promega, cat # G8082). Cell-Titer Blue (3 μL) was added to each well and incubated for 8 hrs at 37° C. The fluorescence signal from each well was read, with an excitation wavelength at 525/10 nm and an emission wavelength of 598/10 nm, using the Viewlux Imager.
(§3) The EC50 values for compounds were calculated by using a four-parameter logistic equation: y=A+((B−A)/(1+((C/x)^D))), where A and B denotes minimal and maximal % inhibition, respectively, C is the EC50, D is the hill slope and x represents compound concentration.

[2] = test system: HCV genotype 1b (Con1) replicon in HUH-7 cells; assay: HCV replicon luciferase reporter assay, genotype 1b; type: cell-based; details: Hepatitis C virus, 72 h, genotype 1b replicon, 3 days incubation
Excerpt: as §1, §2, §3

| SMILES | EC50 ([1]; read-out: LE_1a (EC50, range)) [nM] | EC50 ([2]; read-out: LE_1b (EC50, range)) [nM] | EC50 ([1]; read-out: LE_1a (EC50)) [nM] | EC50 ([2]; read-out: LE_1b (EC50)) [nM] |
| --- | --- | --- | --- | --- |
| COc1cc2ccnc(O[C@@H]3C[C@H]4C(=O)N[C@]5(C(=O)NS(=O)(=O)C6(C)CC6)C[C@H]5/C=C\CC[C@@H](C)O[C@@H](C)[C@H](NC(=O)OC(C)(C)C(F)(F)F)C(=O)N4C3)c2cc1F [Compound 2005, 1,1,1-trifluoro-2-methylpropan-2-yl ((2R,6S,7S,9R,13aS,14aR,16aS,Z)-2-((7-fluoro-6-methoxyisoquinolin-1-yl)oxy)-7,9-dimethyl-14a-(((1-methylcyclopropyl)sulfonyl)carbamoyl)-5,16-dioxo-2,3,5,6,7,9,10,11,13a,14,14a,15,16,16a-tetradecahydro-1H-cyclopropa[i]pyrrolo[1,2-e][1,5,8]oxadiazacyclopentadecin-6-yl)carbamate] | 1.01 to 5 | 0.1 to 0.5 |  |  |
| COc1cc2ccnc(O[C@@H]3C[C@H]4C(=O)N[C@]5(C(=O)NS(=O)(=O)C6(C)CC6)C[C@H]5/C=C\CC[C@@H](C)O[C@@H](C)[C@H](NC(=O)OC(C)(C)C(C)(F)F)C(=O)N4C3)c2cc1F [Compound 2006, 3,3-difluoro-2-methylbutan-2-yl ((2R,6S,7S,9R,13aS,14aR,16aS,Z)-2-((7-fluoro-6-methoxyisoquinolin-1-yl)oxy)-7,9-dimethyl-14a-(((1-methylcyclopropyl)sulfonyl)carbamoyl)-5,16-dioxo-2,3,5,6,7,9,10,11,13a,14,14a,15,16,16a-tetradecahydro-1H-cyclopropa[i]pyrrolo[1,2-e][1,5,8]oxadiazacyclopentadecin-6-yl)carbamate] | 1.01 to 5 | 0.1 to 0.5 |  |  |
| COc1cnc(O[C@@H]2C[C@H]3C(=O)N[C@]4(C(=O)NS(=O)(=O)C5(C)CC5)C[C@H]4/C=C\CC[C@@H](C)O[C@@H](C)[C@H](NC(=O)OC(C)(C)C(F)(F)F)C(=O)N3C2)c2cc(F)ccc12 [Compound 2007, 1,1,1-trifluoro-2-methylpropan-2-yl ((2R,6S,7S,9R,13aS,14aR,16aS,Z)-2-((7-fluoro-4-methoxyisoquinolin-1-yl)oxy)-7,9-dimethyl-14a-(((1-methylcyclopropyl)sulfonyl)carbamoyl)-5,16-dioxo-2,3,5,6,7,9,10,11,13a,14,14a,15,16,16a-tetradecahydro-1H-cyclopropa[i]pyrrolo[1,2-e][1,5,8]oxadiazacyclopentadecin-6-yl)carbamate] | 0.51 to 1 | 0.1 to 0.5 | 0.63 | 0.24 |
| COc1cnc(O[C@@H]2C[C@H]3C(=O)N[C@]4(C(=O)NS(=O)(=O)C5(C)CC5)C[C@H]4/C=C\CC[C@@H](C)O[C@@H](C)[C@H](NC(=O)OC(C)(C)C(C)(F)F)C(=O)N3C2)c2cc(F)ccc12 [Compound 2008, 3,3-difluoro-2-methylbutan-2-yl ((2R,6S,7S,9R,13aS,14aR,16aS,Z)-2-((7-fluoro-4-methoxyisoquinolin-1-yl)oxy)-7,9-dimethyl-14a-(((1-methylcyclopropyl)sulfonyl)carbamoyl)-5,16-dioxo-2,3,5,6,7,9,10,11,13a,14,14a,15,16,16a-tetradecahydro-1H-cyclopropa[i]pyrrolo[1,2-e][1,5,8]oxadiazacyclopentadecin-6-yl)carbamate] | 0.51 to 1 | 0.1 to 0.5 |  |  |
| C[C@@H]1CC/C=C\[C@@H]2C[C@@]2(C(=O)NS(=O)(=O)C2(C)CC2)NC(=O)[C@@H]2C[C@@H](Oc3nccc4c5c(ccc34)OCCO5)CN2C(=O)[C@@H](NC(=O)OC(C)(C)C(F)(F)F)[C@H](C)O1 [Compound 2009, 1,1,1-trifluoro-2-methylpropan-2-yl ((2R,6S,7S,9R,13aS,14aR,16aS,Z)-2-((2,3-dihydro-[1,4]dioxino[2,3-f]isoquinolin-7-yl)oxy)-7,9-dimethyl-14a-(((1-methylcyclopropyl)sulfonyl)carbamoyl)-5,16-dioxo-2,3,5,6,7,9,10,11,13a,14,14a,15,16,16a-tetradecahydro-1H-cyclopropa[i]pyrrolo[1,2-e][1,5,8]oxadiazacyclopentadecin-6-yl)carbamate] | 1.01 to 5 | 0.51 to 1 |  |  |

Source: patent US9598433B2, “Hepatitis C virus inhibitors” (BRISTOL-MYERS SQUIBB COMPANY, priority 2012, dated 2017)
